Test results as given in patent US8865914B2, “Fluorescent probes for detection of copper” (The Regents of the University of California, priority 2012, dated 2014).

Tests used:
[1] = Spectroscopic fluorescence response to Cu(I) and its pH dependency in HEPES buffer; assay type: physicochemical; conditions: for fluorescence response to Cu(I): 20 mM HEPES, pH 7; for sensitivity of fluorescence to pH changes: physiological pH range
Experimental: (§1) Millipore water was used to prepare all aqueous solutions. All spectroscopic measurements were performed in 20 mM HEPES buffer, pH 7.0. Absorption spectra were recorded on a Varian Cary 50 spectrophotometer (Walnut Creek, Calif.) and fluorescence spectra were recorded on a Photo Technology International Quanta Master 4 L-format scan spectrofluorometer (Lawrenceville, N.J.) equipped with an LPS-220B 75-W xenon lamp and power supply, A-1010B lamp housing with integrated igniter, switchable 814 photocounting/analog photomultiplier detection unit, and MD5020 motor driver. Samples for absorption and emission measurements were contained in 1-cm×1-cm quartz cuvettes (1.4-mL volume, Starna, Atascadero, Calif.). Metals used in the selectivity assay were derived from their chloride salts or nitrate salts. The binding affinity of Cu^+ to the dyes was measured using thiourea as a competitive ligand to provide a buffered Cu^+ solution. Briefly, a 1-2 μM solution of dye was made in 20 mM HEPES, pH 7.0 and buffered with a known concentration of thiourea from a 500 mM stock in MilliQ H2O. Cu(I) was delivered in the form of [Cu(MeCN)4][PF6] from an acetonitrile stock solution (2 or 10 mM). The maximum acetonitrile concentration was 0.1%; this concentration of acetonitrile is not high enough to effectively compete with the dyes for Cu^+. Stability constants for thiourea binding were taken from the literature: β12=2.0×10^12, β13=2.0×10^14, β14=3.4×10^15. Martell, A. E.; Smith, R. M. Critical Stability Constants; Plenum Press: New York, 1989. The apparent dissociation constant (Kd) was determined using the following equation: (F−Fmin)/(Fmax−Fmin)=[Cu^+]/(Kd+[Cu^+]), where F is the observed fluorescence; Fmax is the fluorescence for the Cu^+:dye complex; Fmin is the fluorescence for the dye; and [Cu^+] is the ‘free’ Cu^+ available for complexation, which was calculated using the stability constants for thiourea and standard competition equilibrium expressions.

[2] = Metal selectivity assay (fluorescence response to various metal ions); assay type: binding; conditions: 20 mM HEPES, pH 7
Experimental: as §1, with “Briefly, a 1-2 μM solution of dye was made in 20 mM HEPES, pH 7.0 and buffered with a known concentration of thiourea from a 500 mM stock in MilliQ H2O. Cu(I) was delivered in the form of [Cu(MeCN)4][PF6] from an acetonitrile stock solution (2 or 10 mM). The maximum acetonitrile concentration was 0.1%; this concentration of acetonitrile is not high enough to effectively compete with the dyes for Cu^+. Stability constants for thiourea binding were taken from the literature: β12=2.0×10^12, β13=2.0×10^14, β14=3.4×10^15. Martell, A. E.; Smith, R. M. Critical Stability Constants; Plenum Press: New York, 1989.” left out

[3] = test system: HEK293 cells; experiment: Flow cytometry and confocal live-cell imaging of intracellular Cu^+; assay type: cell-based, Human; conditions: HEK293 cells loaded with 100 μM copper chloride, with or without copper chelator
Experimental: Cells were grown in the Tissue Culture Facility at the University of California, Berkeley with expert technical assistance from Ann Fischer and Michelle Yasukawa. HEK (Human Embryonic Kidney) 293T cells were cultured in Dulbecco's Modified Eagle Medium (DMEM, Invitrogen, Carlsbad, Calif.) supplemented with 10% Fetal Bovine Serum (FBS, Invitrogen, Carlsbad, Calif.) and glutamine (2 mM). Two days before imaging, cells were passed and plated on 12-mm glass coverslips coated with poly-L-lysine ([…], Sigma, St. Louis, Mo.). For all experiments, solutions of dyes (from 5 mM stocks in DMSO) were made in Dulbecco's Phosphate buffered saline (DPBS, GIBCO) without calcium chloride, magnesium chloride, magnesium sulfate, sodium bicarbonate, or phenol red. For copper treatment, HEK 293T cells were cultured as described above. One day prior to imaging, 100 μM CuCl2 was added to cells from a 100 mM aqueous stock solution. Cells were then incubated at 37° C., 5% CO2. After 10-12 hours, the media was exchanged for DPBS. Flowcytometry were performed with LSRFortessaTM cell analyzer (BD Biosciences) equipping 640 nm red laser and PE-Cy7 band pass filter. Cells were prepared as described above, and then 3-5 μM CS788 or […] […] Confocal fluorescence images were acquired at the Molecular Imaging Center at the University of California, Berkeley. […]

[4] = test system: SKH1 mice; experiment: Fluorescence imaging experiments in living mice; assay type: in vivo; conditions: for detection of endogenous levels of copper in mice: fluorescence imaging in mice; for detection of changes in copper levels in living mice: mice injected i.p. with copper chloride, copper chelator (ATN-224) or both, then dye
Experimental: Fluorescence images of mice were acquired using a Xenogen IVIS Spectrum instrument. SKH1 mice were obtained from Charles River Labs. Mice were single or group-housed on a 12:12 light-dark cycle at 22° C. with free access to food and water. SKH1 mice, aged 5-10 weeks, were anesthetized with isoflurane and injected with 1) DPBS (i.p., 100 μL), 2) CuCl2 (i.p., 5 mg/kg in 50 μL of DPBS) and DBPS (i.p., 50 μL), 3) CuCl2 (i.p., 5 mg/kg in 50 μL of DPBS) and ATN-224 (i.p., 5 mg/kg in 50 μL of DPBS), or 4) ATN-224 (i.p., 5 mg/kg in 50 μL of DPBS) and DBPS (i.p., 50 μL). 0-24 hours later, the mice were anesthetized with isoflurane and injected (i.p.) with DPBS (50 μL) or a dye (0.1 mM, 50 μL) and imaged immediately or up to 10 days later. All animal studies were approved and performed according to the guidelines of the Animal Care and Use Committee of the University of California, Berkeley.

Row | sensitivity of fluorescence to pH changes [1] | SMILES | fluorescence response to Cu(I) [1] | selectivity for Cu(I) over other transition metals, alkali metals and alkali earth metals [2] | detection of copper level changes in living cells [3] | detection of endogenous levels of copper in mice [4] | detection of changes in copper levels in living mice [4] | changes in integrated fluorescence from individual mice ([4]; two-tailed Student's t-test, P<0.05, n=3, except the change between CS790AM and copper, ATN-244, and CS790AM)
1 | insensitive to pH changes | CCCN1/C(=C/C=C2\CCCC(/C=C/C3=[N+](CCC)c4ccccc4C3(C)C)=C2Oc2ccc(N(CCSCCSCC)CCSCCSCC)cc2)C(C)(C)c2ccccc21.[I-] [CS788] | large fluorescence increase | bind selectively to Cu(I) | increased fluorescence in cells loaded with copper chloride | able to detect endogenous levels of copper | can detect changes in copper levels in mice | 
2 | insensitive to pH changes | CSCCCNc1ccc(OC2=C(/C=C/C3=[N+](CCC(=O)OCOC(C)=O)c4ccccc4C3(C)C)CCC/C2=C\C=C2\N(CCC(=O)OCOC(C)=O)c3ccccc3C2(C)C)cc1SCCCSC.[Br-] [CS790AM] | large fluorescence increase | bind selectively to Cu(I) | increased fluorescence in cells loaded with copper chloride | able to detect endogenous levels of copper | can detect changes in copper levels in mice | statistically significant
